Results reported in ChEMBL document CHEMBL1201862, “PubChem BioAssay data set” (2004).
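Assay format: 96-well plates, 48-hour exposure. GI50 marks 50% less growth.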 The source made the active and inactive calls. Rule as the data show it: active = GI50 up to about 1.1 µM and inactive = higher.

How the values were obtained:
Experiment in all cases: inhibition of tumour cell growth, NCI panel, 48 h
LOX IMVI = system: LOX IMVI
ACHN = system: ACHN
IGROV-1 = system: IGROV-1
NCI-H460 = system: NCI-H460
RXF 393 = system: RXF 393
SN12C = system: SN12C
SK-OV-3 = system: SK-OV-3
NCI-H226 = system: NCI-H226
M14 = system: M14
TK-10 = system: TK-10
OVCAR-3 = system: OVCAR-3
HOP-92 = system: HOP-92
MOLT-4 = system: MOLT-4
SNB-75 = system: SNB-75
U-251 = system: U-251
HCC 2998 = system: HCC 2998
UO-31 = system: UO-31
SF-539 = system: SF-539
HOP-62 = system: HOP-62
Malme-3M = system: Malme-3M

Measured: GI50

CN(C)c1c([O-])c(=[N+](C)C)c1=O
inactive: LOX IMVI > 100 µM | ACHN > 100 µM | IGROV-1 > 100 µM | NCI-H460 > 100 µM | RXF 393 > 100 µM | SN12C > 100 µM | SK-OV-3 > 100 µM | NCI-H226 > 100 µM | M14 > 100 µM | TK-10 > 100 µM | OVCAR-3 > 100 µM | HOP-92 > 100 µM | MOLT-4 > 100 µM | SNB-75 > 100 µM | U-251 > 100 µM | HCC 2998 > 100 µM | UO-31 > 100 µM | SF-539 > 100 µM | HOP-62 > 100 µM

O=C(c1ccco1)N(C(=S)OCCOc1ccccc1)c1ccccc1
inactive: LOX IMVI 19.3 µM | ACHN 23 µM | IGROV-1 17.7 µM | NCI-H460 21.9 µM | RXF 393 13.8 µM | SN12C 19.5 µM | SK-OV-3 21.8 µM | M14 19.5 µM | TK-10 20.9 µM | OVCAR-3 16.5 µM | HOP-92 14.8 µM | MOLT-4 23.8 µM | U-251 16.5 µM | Malme-3M 19.9 µM | HCC 2998 21 µM | UO-31 15.7 µM | SF-539 22.9 µM | HOP-62 16.2 µM

CN(C)Cc1cc(C(=O)/C=C/c2cccc(Cl)c2)cc(CN(C)C)c1O
inactive: LOX IMVI 2.24 µM | ACHN 2.99 µM | IGROV-1 3.27 µM | NCI-H460 3.05 µM | RXF 393 7.05 µM | SN12C 3.39 µM | NCI-H226 4.31 µM | M14 3.37 µM | TK-10 9.2 µM | OVCAR-3 2.67 µM | HOP-92 4.31 µM | MOLT-4 3.43 µM | SNB-75 1.95 µM | U-251 2.74 µM | HCC 2998 10.6 µM | UO-31 5.78 µM | SF-539 6.14 µM | HOP-62 3.65 µM

O=C(COc1ccc(Cl)cc1)N1N=C(c2ccc([N+](=O)[O-])o2)CC1(O)c1ccccc1 (stereo unspecified)
inactive: LOX IMVI 10.8 µM | ACHN 6.03 µM | IGROV-1 6.24 µM | NCI-H460 11.1 µM | SN12C 4.44 µM | SK-OV-3 19.3 µM | NCI-H226 28.2 µM | M14 11.8 µM | TK-10 8.63 µM | OVCAR-3 3.77 µM | HOP-92 20.2 µM | MOLT-4 3.42 µM | SNB-75 > 10 µM | U-251 4.94 µM | Malme-3M 10.4 µM | HCC 2998 4.11 µM | UO-31 11.4 µM | SF-539 13.1 µM | HOP-62 20 µM

Cc1cc2nnc(C(N)=O)c(N)c2cc1C
inactive: LOX IMVI > 100 µM | ACHN > 100 µM | IGROV-1 > 100 µM | NCI-H460 > 100 µM | SN12C > 100 µM | SK-OV-3 42.1 µM | NCI-H226 > 100 µM | M14 > 100 µM | TK-10 > 100 µM | OVCAR-3 > 100 µM | HOP-92 26.2 µM | MOLT-4 > 100 µM | SNB-75 12.9 µM | U-251 > 100 µM | Malme-3M 38.4 µM | HCC 2998 > 100 µM | UO-31 > 100 µM | SF-539 > 100 µM | HOP-62 39.8 µM

CCCCCCCc1cc(OC(=O)c2c(C)cc(OC)cc2O)cc(O)c1C(=O)O
inactive: LOX IMVI 21.3 µM | ACHN 24.7 µM | IGROV-1 22.7 µM | NCI-H460 19.3 µM | RXF 393 22 µM | SN12C 26.6 µM | SK-OV-3 24.5 µM | M14 21.3 µM | TK-10 28.7 µM | OVCAR-3 14.6 µM | HOP-92 26 µM | MOLT-4 27.7 µM | SNB-75 19 µM | U-251 17.9 µM | Malme-3M 19.8 µM | HCC 2998 20.3 µM | UO-31 16.9 µM | SF-539 17.6 µM | HOP-62 18.5 µM

Cc1[nH]c(/C=C2\C(=O)Nc3ccccc32)c(C)c1CCC(=O)O [ORANTINIB]
inactive: LOX IMVI 28.4 µM | ACHN 30.5 µM | IGROV-1 21.9 µM | NCI-H460 31 µM | RXF 393 29.1 µM | SN12C 31 µM | SK-OV-3 30.1 µM | M14 23.1 µM | TK-10 42.5 µM | OVCAR-3 22.1 µM | HOP-92 21.8 µM | MOLT-4 30.1 µM | SNB-75 12.6 µM | U-251 59.4 µM | Malme-3M 21.2 µM | HCC 2998 35.6 µM | UO-31 32.7 µM | HOP-62 29.4 µM

O=C1c2ccccc2CC12Cc1cc3c(cc1C2=O)CCC3 (stereo unspecified)
inactive: LOX IMVI > 100 µM | ACHN > 100 µM | IGROV-1 > 100 µM | NCI-H460 > 100 µM | RXF 393 > 100 µM | SK-OV-3 > 100 µM | M14 > 100 µM | TK-10 > 100 µM | OVCAR-3 > 100 µM | HOP-92 > 100 µM | MOLT-4 > 100 µM | SNB-75 > 100 µM | U-251 > 100 µM | Malme-3M > 100 µM | HCC 2998 > 100 µM | UO-31 > 100 µM | SF-539 > 100 µM | HOP-62 > 100 µM

COc1ccc(NC(=S)C#N)cc1
inactive: LOX IMVI > 100 µM | ACHN > 100 µM | RXF 393 > 100 µM | SN12C > 100 µM | SK-OV-3 > 100 µM | NCI-H226 > 100 µM | M14 > 100 µM | TK-10 > 100 µM | OVCAR-3 > 100 µM | HOP-92 97.3 µM | SNB-75 > 100 µM | U-251 > 100 µM | HCC 2998 > 100 µM | SF-539 > 100 µM | HOP-62 > 100 µM

CNS(=O)(=O)NNS(=O)(=O)c1ccc(Cl)cc1
inactive: ACHN > 100 µM | IGROV-1 > 100 µM | NCI-H460 > 100 µM | RXF 393 > 100 µM | SN12C > 100 µM | SK-OV-3 > 100 µM | M14 > 100 µM | TK-10 > 100 µM | OVCAR-3 > 100 µM | HOP-92 > 100 µM | MOLT-4 > 100 µM | Malme-3M > 100 µM | HCC 2998 > 100 µM | UO-31 48.2 µM | SF-539 > 100 µM | HOP-62 > 100 µM

O=C1CSC(c2c[nH]c3ccccc23)N1c1cccc([N+](=O)[O-])c1 (stereo unspecified)
inactive: LOX IMVI 93.5 µM | IGROV-1 > 100 µM | NCI-H460 28.8 µM | RXF 393 > 100 µM | SN12C > 100 µM | SK-OV-3 > 100 µM | M14 > 100 µM | TK-10 81.8 µM | OVCAR-3 > 100 µM | HOP-92 32.6 µM | MOLT-4 > 100 µM | SNB-75 43.7 µM | U-251 > 100 µM | HCC 2998 > 100 µM | UO-31 42.7 µM | SF-539 82 µM | HOP-62 > 100 µM
